Test results published in ChEMBL document CHEMBL1135615.

Experiments:
[1] = molecular target: 4-aminobutyrate aminotransferase, mitochondrial (Homo sapiens) (UniProt P80404); experiment: Time dependent inactivation of Gamma-amino-N-butyrate transaminase; conditions: Cavia porcellus
[2] = Ratio of kinact to that of KI.

4-aminobutyrate aminotransferase, mitochondrial (Homo sapiens), sequence (P80404 whole entry): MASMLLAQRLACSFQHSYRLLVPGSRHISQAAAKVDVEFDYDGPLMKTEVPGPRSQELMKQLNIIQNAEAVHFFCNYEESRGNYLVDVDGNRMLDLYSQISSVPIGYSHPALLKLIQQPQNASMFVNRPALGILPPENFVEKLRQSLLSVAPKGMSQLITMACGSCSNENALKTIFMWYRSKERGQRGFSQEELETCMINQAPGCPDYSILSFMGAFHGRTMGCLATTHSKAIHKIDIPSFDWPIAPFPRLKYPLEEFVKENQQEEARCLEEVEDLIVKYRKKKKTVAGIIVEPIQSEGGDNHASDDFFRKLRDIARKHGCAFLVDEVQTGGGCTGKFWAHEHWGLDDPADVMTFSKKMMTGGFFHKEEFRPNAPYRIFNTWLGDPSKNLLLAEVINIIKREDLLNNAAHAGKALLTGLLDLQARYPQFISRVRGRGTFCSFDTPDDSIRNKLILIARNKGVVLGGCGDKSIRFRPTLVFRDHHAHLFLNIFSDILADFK

| Structure (SMILES) | K inact [1] | Ratio [2] |
| --- | --- | --- |
| N[C@@H]1C=CCC[C@@H]1C(=O)O | 0.03 min⁻¹ | 0.0024 |
| N[C@@H]1C=CC[C@H](C(=O)O)C1 | 0.01 min⁻¹ | 0.0042 |
